Data as given in ChEMBL document CHEMBL4364344, “Design, synthesis and evaluation of activity and pharmacokinetic profile of new derivatives of xanthone and piperazine in the central nervous system” (Bioorg Med Chem Lett, 2019).

Key:
[1] = molecular target: Prostaglandin E2 receptor EP4 subtype (Homo sapiens) (UniProt P35408); assay: Displacement of [3H]PGE2 from recombinant human EP4 receptor at 10 uM after 120 mins by radiometric scintillation analysis relative to control
[2] = molecular target: Histamine H1 receptor (Homo sapiens) (UniProt P35367); assay: Displacement of [3H]pyrilamine from recombinant human H1 histamine receptor at 10 uM after 60 mins by radiometric scintillation analysis relative to control
[3] = molecular target: Adrenergic receptor alpha-1 (Rattus norvegicus) (UniProt P15823+P23944+P43140); assay: Displacement of [3H]prazosin from rat brain alpha 1 receptor at 10 uM after 60 mins by radiometric scintillation analysis relative to control
[4] = molecular target: D(2) dopamine receptor (Homo sapiens) (UniProt P14416); assay: Displacement of [3H]methyl-spiperone from recombinant human D2S dopamine receptor at 10 uM after 60 mins by radiometric scintillation analysis relative to control
Sequence of D(2) dopamine receptor (Homo sapiens) (P14416 whole entry): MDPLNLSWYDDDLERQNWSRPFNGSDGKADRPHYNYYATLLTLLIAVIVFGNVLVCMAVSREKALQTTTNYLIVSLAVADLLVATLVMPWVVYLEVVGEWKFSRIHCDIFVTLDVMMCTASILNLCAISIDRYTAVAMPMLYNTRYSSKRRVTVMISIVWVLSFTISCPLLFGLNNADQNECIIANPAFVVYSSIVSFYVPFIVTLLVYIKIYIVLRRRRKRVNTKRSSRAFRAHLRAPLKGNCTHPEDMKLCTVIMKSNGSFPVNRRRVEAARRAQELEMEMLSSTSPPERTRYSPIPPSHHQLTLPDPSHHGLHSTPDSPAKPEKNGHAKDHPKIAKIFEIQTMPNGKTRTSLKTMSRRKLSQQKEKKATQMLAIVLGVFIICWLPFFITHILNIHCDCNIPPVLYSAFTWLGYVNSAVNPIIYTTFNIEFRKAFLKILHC

[5] = molecular target: L-type calcium channel (verapamil binding site) (Homo sapiens, UniProt O60840+Q01668+Q13698+Q13936); assay: Displacement of [3H] Diltiazem from human L-type calcium channel verapamil binding site at 10 uM after 20 hrs by scintillation analysis relative to control; type: protein assay; details: probe [3H] Diltiazem
[6] = Mutagenicity in Salmonella typhimurium TA98 at 5 ug/plate preincubated for 20 mins followed by addition of top agar and measured after 48 hrs by Ames test; type: toxicity; details: salmonella enterica subsp. enterica serovar typhimurium
[7] = molecular target: Small conductance calcium-activated potassium channel (Rattus norvegicus) (UniProt P70604+P70606+P70605); assay: Displacement of [125I]apamin from rat brain SKCa at 10 uM after 60 mins by radiometric scintillation analysis relative to control
[8] = Terminal half life in CD-1 mouse plasma at 5 mg/kg, ip measured up to 480 mins by LC/ESI-MS/MS analysis; type: ADME, organism-based; details: read-out: beta t1/2
[9] = Tmax in CD-1 mouse brain at 5 mg/kg, ip measured up to 480 mins by LC/ESI-MS/MS analysis; type: ADME, organism-based
[10] = molecular target: Delta-type opioid receptor (Homo sapiens) (UniProt P41143); assay: Displacement of [3H]DADLE from recombinant human DOR receptor at 10 uM after 60 mins by radiometric scintillation analysis relative to control
Sequence of Delta-type opioid receptor (Homo sapiens) (P41143 whole entry): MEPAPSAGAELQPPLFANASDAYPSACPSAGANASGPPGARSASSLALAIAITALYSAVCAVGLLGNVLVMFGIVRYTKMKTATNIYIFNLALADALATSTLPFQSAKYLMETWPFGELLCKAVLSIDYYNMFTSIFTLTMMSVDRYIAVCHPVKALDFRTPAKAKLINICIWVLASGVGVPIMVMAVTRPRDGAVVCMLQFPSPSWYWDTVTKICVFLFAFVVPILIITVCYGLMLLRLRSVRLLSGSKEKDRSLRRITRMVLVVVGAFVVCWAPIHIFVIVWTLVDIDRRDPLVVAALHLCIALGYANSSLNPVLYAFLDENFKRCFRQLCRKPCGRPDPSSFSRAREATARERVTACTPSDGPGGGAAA

[11] = molecular target: Vasopressin V1a receptor (Homo sapiens) (UniProt P37288); assay: Displacement of [3H]AVP recombinant human V1A receptor at 10 uM after 60 mins by radiometric scintillation analysis relative to control
[12] = Apparent clearance in CD-1 mouse plasma at 5 mg/kg, ip measured up to 480 mins by LC/ESI-MS/MS analysis; type: ADME, organism-based
[13] = molecular target: C-X-C chemokine receptor type 2 (Homo sapiens) (UniProt P25025); assay: Displacement of [125I]IL-8 from recombinant human CXCR2 at 10 uM after 60 mins by radiometric scintillation analysis relative to control
Sequence of C-X-C chemokine receptor type 2 (Homo sapiens) (P25025 whole entry): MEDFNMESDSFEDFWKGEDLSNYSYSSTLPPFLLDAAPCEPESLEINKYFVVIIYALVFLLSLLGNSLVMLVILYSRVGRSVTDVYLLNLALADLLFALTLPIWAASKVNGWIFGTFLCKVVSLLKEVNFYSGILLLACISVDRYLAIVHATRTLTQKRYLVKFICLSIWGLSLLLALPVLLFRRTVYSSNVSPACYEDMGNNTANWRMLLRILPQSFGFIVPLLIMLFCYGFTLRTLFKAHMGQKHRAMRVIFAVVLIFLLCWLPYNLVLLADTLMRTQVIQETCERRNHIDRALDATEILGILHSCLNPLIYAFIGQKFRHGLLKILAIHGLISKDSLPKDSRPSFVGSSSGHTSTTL

[14] = molecular target: Beta-2 adrenergic receptor (Homo sapiens) (UniProt P07550); assay: Displacement of [3H](-)CGP 12177 from recombinant human beta 2 receptor at 10 uM after 120 mins by radiometric scintillation analysis relative to control
Sequence of Beta-2 adrenergic receptor (Homo sapiens) (P07550 whole entry, looked up): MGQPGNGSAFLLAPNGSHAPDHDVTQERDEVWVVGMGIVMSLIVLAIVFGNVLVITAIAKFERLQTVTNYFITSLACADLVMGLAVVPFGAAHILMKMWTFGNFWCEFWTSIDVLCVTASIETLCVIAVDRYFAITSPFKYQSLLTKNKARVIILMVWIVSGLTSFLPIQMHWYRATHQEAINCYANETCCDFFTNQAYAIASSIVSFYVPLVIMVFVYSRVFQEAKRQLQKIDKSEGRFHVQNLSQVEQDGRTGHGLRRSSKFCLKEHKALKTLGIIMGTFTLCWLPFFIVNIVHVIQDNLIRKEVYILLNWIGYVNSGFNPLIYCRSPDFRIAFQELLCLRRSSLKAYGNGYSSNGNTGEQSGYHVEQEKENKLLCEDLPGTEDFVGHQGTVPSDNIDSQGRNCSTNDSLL

[15] = molecular target: 5-hydroxytryptamine receptor 6 (Homo sapiens) (UniProt P50406); assay: Displacement of [3H]LSD from recombinant human 5-HT6 receptor at 10 uM after 120 mins by radiometric scintillation analysis relative to control
Sequence of 5-hydroxytryptamine receptor 6 (Homo sapiens) (P50406 whole entry): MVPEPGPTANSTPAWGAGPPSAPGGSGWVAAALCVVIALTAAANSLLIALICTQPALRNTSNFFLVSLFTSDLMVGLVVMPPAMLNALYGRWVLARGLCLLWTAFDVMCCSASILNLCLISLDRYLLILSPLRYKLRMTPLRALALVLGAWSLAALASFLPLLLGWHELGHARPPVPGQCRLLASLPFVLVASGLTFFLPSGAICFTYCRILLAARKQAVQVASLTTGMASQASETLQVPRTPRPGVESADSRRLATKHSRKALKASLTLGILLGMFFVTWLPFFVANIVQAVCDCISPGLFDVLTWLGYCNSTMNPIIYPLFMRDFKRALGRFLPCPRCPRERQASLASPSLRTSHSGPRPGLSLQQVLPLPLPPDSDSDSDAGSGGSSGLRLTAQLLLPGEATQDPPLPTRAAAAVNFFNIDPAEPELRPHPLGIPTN

[16] = molecular target: Serotonin 2 (5-HT2) receptor (Rattus norvegicus) (UniProt P30994+P08909+P14842); assay: Displacement of [3H]ketanserin from 5-HT2 receptor in Wistar rat brain cortex membrane at 10 uM after 40 mins by scintillation counting analysis relative to control; type: cell membranes
Sequence of Serotonin 2 (5-HT2) receptor (Rattus norvegicus) (P08909 whole entry, looked up): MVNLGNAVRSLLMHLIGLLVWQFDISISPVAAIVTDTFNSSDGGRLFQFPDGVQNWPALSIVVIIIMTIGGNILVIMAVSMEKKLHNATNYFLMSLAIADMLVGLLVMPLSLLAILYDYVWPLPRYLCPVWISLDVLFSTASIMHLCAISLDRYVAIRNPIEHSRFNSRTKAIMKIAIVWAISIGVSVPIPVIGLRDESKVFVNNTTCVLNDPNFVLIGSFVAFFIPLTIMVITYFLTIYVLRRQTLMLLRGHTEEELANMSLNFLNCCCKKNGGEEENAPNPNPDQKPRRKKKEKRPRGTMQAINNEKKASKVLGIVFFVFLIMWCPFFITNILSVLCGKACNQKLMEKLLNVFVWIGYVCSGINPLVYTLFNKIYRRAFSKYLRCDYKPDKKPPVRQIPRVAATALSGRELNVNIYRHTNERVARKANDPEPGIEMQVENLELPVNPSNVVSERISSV
Sequence of Serotonin 2 (5-HT2) receptor (Rattus norvegicus) (P14842 whole entry, looked up): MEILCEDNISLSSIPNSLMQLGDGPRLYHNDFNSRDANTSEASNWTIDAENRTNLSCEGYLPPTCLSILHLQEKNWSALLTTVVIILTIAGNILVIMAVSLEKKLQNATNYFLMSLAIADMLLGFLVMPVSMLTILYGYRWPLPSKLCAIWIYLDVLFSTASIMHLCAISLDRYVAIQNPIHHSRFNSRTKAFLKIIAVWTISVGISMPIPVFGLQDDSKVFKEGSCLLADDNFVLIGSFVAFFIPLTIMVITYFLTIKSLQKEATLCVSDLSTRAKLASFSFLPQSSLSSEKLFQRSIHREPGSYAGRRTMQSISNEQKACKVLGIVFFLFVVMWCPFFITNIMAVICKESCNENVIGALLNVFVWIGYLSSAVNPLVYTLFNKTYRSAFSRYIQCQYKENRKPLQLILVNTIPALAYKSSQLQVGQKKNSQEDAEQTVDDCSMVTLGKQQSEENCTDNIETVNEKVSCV
Sequence of Serotonin 2 (5-HT2) receptor (Rattus norvegicus) (P30994 whole entry, looked up): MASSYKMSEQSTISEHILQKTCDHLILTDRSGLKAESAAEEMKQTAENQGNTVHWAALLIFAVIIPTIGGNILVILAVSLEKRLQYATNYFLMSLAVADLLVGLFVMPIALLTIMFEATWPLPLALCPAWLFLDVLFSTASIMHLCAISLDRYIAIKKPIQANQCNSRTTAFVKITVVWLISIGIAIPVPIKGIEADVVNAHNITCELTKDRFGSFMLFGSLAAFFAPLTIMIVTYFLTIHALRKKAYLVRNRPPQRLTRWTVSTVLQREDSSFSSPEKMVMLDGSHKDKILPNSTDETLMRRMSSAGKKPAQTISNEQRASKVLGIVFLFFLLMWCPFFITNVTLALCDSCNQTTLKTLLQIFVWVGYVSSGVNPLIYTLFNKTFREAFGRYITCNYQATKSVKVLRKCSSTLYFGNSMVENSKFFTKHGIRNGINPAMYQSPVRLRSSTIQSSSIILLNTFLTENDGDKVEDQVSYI

[17] = Mutagenicity in Salmonella typhimurium TA102 at 50 ug/plate preincubated for 20 mins followed by addition of top agar and measured after 48 hrs by Ames test; type: toxicity; details: salmonella enterica subsp. enterica serovar typhimurium
[18] = molecular target: 5-hydroxytryptamine receptor 5A (Homo sapiens) (UniProt P47898); assay: Displacement of [3H]LSD from recombinant human 5-HT5A receptor at 10 uM after 120 mins by radiometric scintillation analysis relative to control
[19] = molecular target: Sodium-dependent serotonin transporter (Homo sapiens) (UniProt P31645); assay: Displacement of [3H]imipramine recombinant human 5-HT transporter at 10 uM after 60 mins by radiometric scintillation analysis relative to control
[20] = molecular target: Sodium-dependent noradrenaline transporter (Homo sapiens) (UniProt P23975); assay: Displacement of [3H]nisoxetine recombinant human norepinephrine transporter at 10 uM after 120 mins by radiometric scintillation analysis relative to control
Sequence of Sodium-dependent noradrenaline transporter (Homo sapiens) (P23975 whole entry): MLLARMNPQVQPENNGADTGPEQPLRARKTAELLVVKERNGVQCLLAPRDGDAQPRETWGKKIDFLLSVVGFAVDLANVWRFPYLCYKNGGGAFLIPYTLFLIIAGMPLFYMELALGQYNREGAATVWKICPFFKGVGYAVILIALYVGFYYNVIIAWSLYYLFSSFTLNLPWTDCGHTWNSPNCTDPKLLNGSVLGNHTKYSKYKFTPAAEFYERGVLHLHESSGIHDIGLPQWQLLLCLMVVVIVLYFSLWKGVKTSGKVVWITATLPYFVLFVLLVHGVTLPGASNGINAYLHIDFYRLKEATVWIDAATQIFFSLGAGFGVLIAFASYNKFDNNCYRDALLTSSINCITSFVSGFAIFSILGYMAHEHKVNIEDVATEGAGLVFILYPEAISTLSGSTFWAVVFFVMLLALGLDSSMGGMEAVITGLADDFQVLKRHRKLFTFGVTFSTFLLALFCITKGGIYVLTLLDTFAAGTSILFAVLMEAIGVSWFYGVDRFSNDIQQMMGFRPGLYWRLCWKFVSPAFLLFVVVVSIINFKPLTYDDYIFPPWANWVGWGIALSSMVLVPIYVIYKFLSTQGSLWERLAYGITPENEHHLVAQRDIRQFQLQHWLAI

[21] = Mutagenicity in Salmonella typhimurium TA100 at 5 ug/plate preincubated for 20 mins followed by addition of top agar and measured after 48 hrs by Ames test; type: toxicity; details: salmonella enterica subsp. enterica serovar typhimurium
Rattus norvegicus [22] = species on record: Rattus norvegicus; assay: Displacement of [3H]GABA from rat brain GABA receptor at 10 uM after 30 mins by radiometric scintillation analysis relative to control
[23] = molecular target: C-C chemokine receptor type 1 (Homo sapiens) (UniProt P32246); assay: Displacement of [125I]MIP-1alpha from recombinant human CCR1 receptor at 10 uM after 120 mins by radiometric scintillation analysis relative to control
[24] = molecular target: Vasoactive intestinal polypeptide receptor 1 (Homo sapiens) (UniProt P32241); assay: Displacement of [125I]VIP recombinant human VPAC1 receptor at 10 uM after 120 mins by radiometric scintillation analysis relative to control
[25] = molecular target: Melatonin receptor type 1A (Homo sapiens) (UniProt P48039); assay: Displacement of [125I]2-iodomelatonin from recombinant human MT1 receptor at 10 uM after 240 mins by radiometric scintillation counting analysis relative to control
Sequence of Melatonin receptor type 1A (Homo sapiens) (P48039 whole entry): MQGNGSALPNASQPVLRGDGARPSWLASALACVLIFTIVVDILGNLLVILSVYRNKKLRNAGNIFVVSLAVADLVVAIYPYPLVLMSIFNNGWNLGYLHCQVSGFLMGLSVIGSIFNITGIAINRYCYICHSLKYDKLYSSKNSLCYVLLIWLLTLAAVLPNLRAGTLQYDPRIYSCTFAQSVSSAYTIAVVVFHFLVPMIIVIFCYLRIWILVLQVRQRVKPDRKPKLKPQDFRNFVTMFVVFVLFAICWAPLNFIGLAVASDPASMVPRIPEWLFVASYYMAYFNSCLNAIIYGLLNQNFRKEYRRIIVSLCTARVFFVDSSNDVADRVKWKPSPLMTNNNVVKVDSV

Rattus norvegicus [26] = species on record: Rattus norvegicus; assay: Displacement of [3H] TBPS from rat GABA gated chloride channel at 10 uM measured after 120 mins by scintillation counter method relative to control relative to control
[27] = Cmax in CD-1 mouse brain at 5 mg/kg, ip measured up to 480 mins by LC/ESI-MS/MS analysis; type: ADME, organism-based; design: dose 5 mg/kg, route intraperitoneal
[28] = molecular target: Kappa-type opioid receptor (Homo sapiens) (UniProt P41145); assay: Displacement of [3H]U69593 from human KOR receptor at 10 uM after 60 mins by radiometric scintillation analysis relative to control
Sequence of Kappa-type opioid receptor (Homo sapiens) (P41145 whole entry): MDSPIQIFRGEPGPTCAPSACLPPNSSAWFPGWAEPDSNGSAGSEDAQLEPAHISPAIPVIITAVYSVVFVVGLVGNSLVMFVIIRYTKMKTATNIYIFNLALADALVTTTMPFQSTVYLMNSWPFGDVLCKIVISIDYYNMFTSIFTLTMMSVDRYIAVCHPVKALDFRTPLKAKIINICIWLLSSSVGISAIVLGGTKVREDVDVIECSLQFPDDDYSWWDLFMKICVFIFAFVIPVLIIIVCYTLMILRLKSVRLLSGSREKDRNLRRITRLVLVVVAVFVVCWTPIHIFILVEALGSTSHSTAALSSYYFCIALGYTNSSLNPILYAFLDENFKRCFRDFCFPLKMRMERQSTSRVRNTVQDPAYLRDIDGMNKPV

[29] = AUC (0 to t) in CD-1 mouse plasma at 5 mg/kg, ip measured up to 480 mins by LC/ESI-MS/MS analysis; type: ADME, organism-based; design: dose 5 mg/kg, time < 8 hr, route intraperitoneal
[30] = Mutagenicity in Salmonella typhimurium TA100 at 50 ug/plate preincubated for 20 mins followed by addition of top agar and measured after 48 hrs by Ames test; type: toxicity; details: salmonella enterica subsp. enterica serovar typhimurium
Mus musculus = assay: Anxiolytic activity in albino Swiss CD-1 mouse assessed as increase in number of punished crossings at 5 mg/kg, ip administered 30 mins prior to test by four-plate test relative to control; type: functional
[31] = molecular target: 5-hydroxytryptamine receptor 1A (Homo sapiens) (UniProt P08908); assay: Displacement of [3H]8-OH-DPAT from recombinant human 5-HT1A receptor at 10 uM after 60 mins by radiometric scintillation analysis relative to control

## Cl.Cl.O=c1c2cc(Cl)ccc2oc2ccc(CN3CCN(CCOCCO)CC3)cc12
[1]
  inhibition: 10.9%
[2]
  inhibition: 43.1%
[3]
  inhibition: 8.5%
[4]
  inhibition: 27.4%
[5]
  inhibition at 20 h, 10 µM: 42.2%
[6]
  Activity_index: 1.03
[7]
  inhibition: 8.5%
[8]
  half-life: 2.89 h
[9]
  Tmax: 0.5 h
[10]
  inhibition: 27.1%
[11]
  inhibition: -0.2%
[12]
  CL/F: 12.2 mL/min/kg
[13]
  inhibition: 19.8%
[14]
  inhibition: 3.7%
[15]
  inhibition: 2.5%
[16]
  inhibition: 47%
[17]
  Activity_index: 0.78
[18]
  inhibition: 13.8%
[19]
  inhibition: 24.8%
[20]
  inhibition: 43.1%
[21]
  Activity_index: 0.66
Rattus norvegicus [22]
  inhibition: 11.7%
[23]
  inhibition: -3.1%
[24]
  inhibition: -1.2%
[25]
  inhibition: 11.1%
Rattus norvegicus [26]
  inhibition: 5%
[27]
  Cmax: 18600 ng/mL
[28]
  inhibition: 12.2%
[29]
  AUC(0-t) at 8 h: 5490 ng·h/mL
[30]
  Activity_index: 0.64
Mus musculus
  Activity: 66.6%
[31]
  inhibition: -2.6%
